The results in this text go back to article PMC2852069 (Indian Journal of Pharmaceutical Sciences, 2008).

Structures are written as SMILES. Converted amounts (≈) assume the structure as drawn.

In series [1] the test system is HCV RNA (HCV replicon in Huh 5-2 cells). As to the kind of experiment: microbe, parasite or virus in culture. Type of series: cell-based, Hepatitis C Virus. To be noted: for EC50: Hepatitis C virus, Huh-5-2, 72 h, read-out: EC50 HCV RNA.
A short description of series [2]: in vitro. The note with it: African green monkey.
The nature of series [3]: in vitro. The note with it: human, CC50 Cell growth.
In a further series the test system is SARS-CoV. The series is described as follows: microbe, parasite or virus in culture. The series is classed as cell-based, Severe Acute Respiratory Syndrome corona virus (SARS-CoV). The note with it: for EC50: Severe acute respiratory syndrome coronavirus, Vero C1008, 72 h, read-out: EC50 (50% effective concentration required to reduce virus-induced cytopathicity by 50%).

For another series, the system named is Huh 5-2 cells. To be noted: human.

`Cc1ccc2c(c1)/C(=N/c1ccc(S(=O)(=O)Nc3nc(C)cc(C)n3)cc1)C(=O)N2` [SPIII-5Me]: the values for the EC50 (in series [1]; with SARS-CoV) were > 50 µg/mL and > 125 µg/mL, respectively. In addition, the CC50 in “in vitro [2]” is > 125 µg/mL; in the series “in vitro [3]”, > 50 µg/mL. For the same compound, in the series on SARS-CoV, the “Maximum protection (%) (at 125 μg/ml)” value is 12%.
As for `Cc1cc(C)nc(NS(=O)(=O)c2ccc(/N=C3\C(=O)Nc4ccc(Br)cc43)cc2)n1` [SPIII-5Br], in series [1], the “EC50 HCV RNA” value amounted to 17 µg/mL (≈ 35 µM). Moreover, the figures for the EC50 (in series [1]; with SARS-CoV) were 19 µg/mL (≈ 39.1 µM) and > 125 µg/mL, respectively. For the same compound, the values for the CC50 in the series “in vitro [2]” and in the series “in vitro [3]” were > 125 µg/mL and 42 µg/mL (≈ 86.4 µM), respectively. For the same compound, the “Maximum protection (%) (at 125 μg/ml)” value in the series on SARS-CoV is on record as 2%. Further, the “CC50 Cell growth” value in the series on Huh 5-2 cells was >50 µg/mL.
Consider `Cc1cc(C)nc(NS(=O)(=O)c2ccc(/N=C3\C(=O)Nc4ccc(Cl)cc43)cc2)n1` [SPIII-5Cl], for which the EC50 in series [1] was > 50 µg/mL; in the series with SARS-CoV, > 125 µg/mL. The CC50 in the series “in vitro [2]” was > 125 µg/mL; in “in vitro [3]”, > 50 µg/mL. Moreover, the “Maximum protection (%) (at 125 μg/ml)” value in the series with SARS-CoV was 10%.
In the case of `Cc1cc(C)nc(NS(=O)(=O)c2ccc(/N=C3\C(=O)Nc4ccc(F)cc43)cc2)n1` [SPIII-5F], the EC50 was 6 µg/mL (≈ 14.1 µM) in series [1] and > 125 µg/mL in the series with SARS-CoV. The figures for the CC50 in “in vitro [2]” and in “in vitro [3]” were > 125 µg/mL and 42 µg/mL (≈ 98.7 µM), respectively. Besides, the “Maximum protection (%) (at 125 μg/ml)” value in the series on SARS-CoV is on record as 45%. For the same compound, the concentration without toxicity entry in the series on Huh 5-2 cells is given as “up to 42 μg/ml”.
Turning to `Cc1cc(C)nc(NS(=O)(=O)c2ccc(/N=C3\C(=O)Nc4ccccc43)cc2)n1` [SPIII-5H, 4-[(1,2-dihydro-2-oxo-3H-indol-3-ylidene)amino]-N(4,6-dimethyl-2-pyrimidiny)benzene sulphonamide], in series [1], the “EC50 HCV RNA” value is 19 µg/mL (≈ 46.6 µM). Further, the EC50 in series [1] was 17 µg/mL (≈ 41.7 µM); in the series with SARS-CoV, > 125 µg/mL. The CC50 was > 125 µg/mL in the series “in vitro [2]” and 42 µg/mL (≈ 103 µM) in the series “in vitro [3]”. Also, the “Maximum protection (%) (at 125 μg/ml)” value with SARS-CoV was determined as 22%. Also, the “CC50 Cell growth” value in the series with Huh 5-2 cells is >50 µg/mL.
On to `CC(=O)N1C(=O)/C(=N\c2ccc(S(=O)(=O)Nc3nc(C)cc(C)n3)cc2)c2ccccc21` [SPIII-NA], for which the EC50 in series [1] is > 50 µg/mL; in the series on SARS-CoV, > 125 µg/mL. Moreover, the CC50 in the series “in vitro [2]” was > 125 µg/mL; in “in vitro [3]”, > 50 µg/mL. Also, the “Maximum protection (%) (at 125 μg/ml)” value in the series with SARS-CoV is on record as 12%.
